target: T1, JNK1α1 (Homo sapiens, UniProt P45983); experiment: Coupled spectrophotometric (PK/LDH) JNK1α1 assay: % inhibition and Ki determination; type: biochemical; conditions: @1 uM; read-out: % Inhibition JNK-1
T1 construct: catalytic domain containing amino acids 1-364 and N-terminal hexahistidine tag; hexahistidine (His6) (N); made in house; host or cells: E. coli BL21 (DE3)
Outline: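 Initial rates were taken from the absorbance decrease at 340 nm at 30° C. Ki was fitted with a tight-binding model over 11 concentrations (top 100 μM); single-point inhibition was tested at 1 or 10 μM.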

T1 sequence (P45983 1-364): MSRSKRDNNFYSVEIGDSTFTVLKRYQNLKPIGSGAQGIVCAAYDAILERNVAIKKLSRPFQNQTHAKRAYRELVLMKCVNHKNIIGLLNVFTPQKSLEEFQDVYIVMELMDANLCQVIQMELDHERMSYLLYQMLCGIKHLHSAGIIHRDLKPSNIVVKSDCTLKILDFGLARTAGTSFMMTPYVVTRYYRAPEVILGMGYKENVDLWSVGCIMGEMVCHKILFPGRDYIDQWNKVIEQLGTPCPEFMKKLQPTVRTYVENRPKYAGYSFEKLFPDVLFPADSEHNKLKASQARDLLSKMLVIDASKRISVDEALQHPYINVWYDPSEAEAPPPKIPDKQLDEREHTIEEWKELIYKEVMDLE

Row | Compound | inhibition at 1 µM
1 | O=C(NCCC1CCCCO1)c1cccc2cnc(N[C@H]3CC[C@H](O)CC3)nc12 (stereo partly drawn) [Example 515, 2-[(trans-4-hydroxycyclohexyl)amino]-N-[2-(tetrahydro-2H-pyran-2-yl)ethyl]quinazoline-8-carboxamide] | 19%
2 | CNC(=O)[C@H](C)NC(=O)c1cccc2cnc(N[C@H]3CC[C@H](O)CC3)nc12 [Example 516, 2-[(trans-4-hydroxycyclohexyl)amino]-N-[(1S)-1-methyl-2-(methylamino)-2-oxoethyl]quinazoline-8-carboxamide] | 26%
3 | O=C(N[C@H]1CCN(C(=O)c2ccccc2)C1)c1cccc2cnc(N[C@H]3CC[C@H](O)CC3)nc12 [Example 517, N-(1-benzoylpyrrolidin-3-yl)-2-[(trans-4-hydroxycyclohexyl)amino]quinazoline-8-carboxamide] | 16%
4 | CC(=O)N1CCC(NC(=O)c2cccc3cnc(N[C@H]4CC[C@H](O)CC4)nc23)CC1 [Example 519, N-(1-acetylpiperidin-4-yl)-2-[(trans-4-hydroxycyclohexyl)amino]quinazoline-8-carboxamide] | 9%
5 | Cn1c(CCNC(=O)c2cccc3cnc(N[C@H]4CC[C@H](O)CC4)nc23)nc2cccnc21 [Example 520, 2-[(trans-4-hydroxycyclohexyl)amino]-N-[2-(3-methyl-3H-imidazo[4,5-b]pyridin-2-yl)ethyl]quinazoline-8-carboxamide] | 10%
6 | Cc1noc(C(NC(=O)c2cccc3cnc(N[C@H]4CC[C@H](O)CC4)nc23)c2ccccc2)n1 (stereo partly drawn) [Example 527, 2-[(trans-4-hydroxycyclohexyl)amino]-N-[(3-methyl-1,2,4-oxadiazol-5-yl)(phenyl)methyl]quinazoline-8-carboxamide] | 34%
7 | O=C(NCCn1ccccc1=O)c1cccc2cnc(N[C@H]3CC[C@H](O)CC3)nc12 [Example 528, 2-[(trans-4-hydroxycyclohexyl)amino]-N-[2-(2-oxopyridin-1(2H)-yl)ethyl]quinazoline-8-carboxamide] | 26%

Further lines, results first:

Row | inhibition at 1 µM | Compound
8 | 11% | Cc1nnc(CNC(=O)c2cccc3cnc(N[C@H]4CC[C@H](O)CC4)nc23)o1 [Example 514, 2-[(trans-4-hydroxycyclohexyl)amino]-N-[(5-methyl-1,3,4-oxadiazol-2-yl)methyl]quinazoline-8-carboxamide]
9 | 49% | Cc1cc(CNC(=O)c2cccc3cnc(N[C@H]4CC[C@H](O)CC4)nc23)nn1C [Example 521, N-[(1,5-dimethyl-1H-pyrazol-3-yl)methyl]-2-[(trans-4-hydroxycyclohexyl)amino]quinazoline-8-carboxamide]
10 | 18% | Cc1nnc(CCNC(=O)c2cccc3cnc(N[C@H]4CC[C@H](O)CC4)nc23)o1 [Example 522, 2-[(trans-4-hydroxycyclohexyl)amino]-N-[2-(5-methyl-1,3,4-oxadiazol-2-yl)ethyl]quinazoline-8-carboxamide]
11 | 16% | CCN1CC(CNC(=O)c2cccc3cnc(N[C@H]4CC[C@H](O)CC4)nc23)OCC1=O (stereo partly drawn) [Example 529, N-[(4-ethyl-5-oxomorpholin-2-yl)methyl]-2-[(trans-4-hydroxycyclohexyl)amino]quinazoline-8-carboxamide]
12 | 26% | Cc1noc(CNC(=O)c2cccc3cnc(N[C@H]4CC[C@H](O)CC4)nc23)n1 [Example 530, 2-[(trans-4-hydroxycyclohexyl)amino]-N-[(3-methyl-1,2,4-oxadiazol-5-yl)methyl]quinazoline-8-carboxamide]
13 | 26% | Cc1cccn(CCNC(=O)c2cccc3cnc(N[C@H]4CC[C@H](O)CC4)nc23)c1=O [Example 531, 2-[(trans-4-hydroxycyclohexyl)amino]-N-[2-(3-methyl-2-oxopyridin-1(2H)-yl)ethyl]quinazoline-8-carboxamide]

same assay, conditions: @10 uM; read-out: % Inhibition JNK-1

Row | Compound | inhibition at 10 µM
14 | Cc1ccn2cc(CCNC(=O)c3cccc4cnc(N[C@H]5CC[C@H](O)CC5)nc34)nc2n1 [Example 524, 2-[(trans-4-hydroxycyclohexyl)amino]-N-[2-(7-methylimidazo[1,2-a]pyrimidin-2-yl)ethyl]quinazoline-8-carboxamide] | 47%
15 | O=C(NCC1CN(C2CCC2)C(=O)CO1)c1cccc2cnc(N[C@H]3CC[C@H](O)CC3)nc12 (stereo partly drawn) [Example 526, N-[(4-cyclobutyl-5-oxomorpholin-2-yl)methyl]-2-[(trans-4-hydroxycyclohexyl)amino]quinazoline-8-carboxamide] | 41%

Results, then the compound that gave them:

Row | inhibition at 10 µM | Compound
16 | 60% | O=C(NCc1ccc(C2CC2)cn1)c1cccc2cnc(N[C@H]3CC[C@H](O)CC3)nc12 [Example 518, N-[(5-cyclopropylpyridin-2-yl)methyl]-2-[(trans-4-hydroxycyclohexyl)amino]quinazoline-8-carboxamide]
17 | 44% | Cc1noc(CCNC(=O)c2cccc3cnc(N[C@H]4CC[C@H](O)CC4)nc23)n1 [Example 523, 2-[(trans-4-hydroxycyclohexyl)amino]-N-[2-(3-methyl-1,2,4-oxadiazol-5-yl)ethyl]quinazoline-8-carboxamide]
18 | 41% | CN1CC(CNC(=O)c2cccc3cnc(N[C@H]4CC[C@H](O)CC4)nc23)OCC1=O (stereo partly drawn) [Example 525, 2-[(trans-4-hydroxycyclohexyl)amino]-N-[(4-methyl-5-oxomorpholin-2-yl)methyl]quinazoline-8-carboxamide]

Reference: patent US7998978B2 (Pfizer Inc., priority 2006, dated 2011)
